Assay results taken from patent US10160867B2, “Benzoxaborole-containing coating resistant to cellulose-supportable fungus” (THE PENN STATE RESEARCH FOUNDATION, priority 2015, dated 2018).
Values after ≈ are worked out from the molar mass of the structure shown. Like-named read-outs stand apart in the source and are kept apart here.

What was measured:
Type in all cases: cell-based
Penicillium purpurogenum = assay: 3 day MIC, broth microdilution in 25% PDB; details: 72 h, read-out: 3 day MIC
Procedure: (§1) Stock solutions (concentrations of between 4,000 μg/mL to 10,000 μg/mL; stored at −18° C.) of the above antifungals were prepared in dimethyl sulfoxide (DMSO). The stock solutions were further diluted into sterile 25% potato dextrose broth (PDB) so that the diluted solutions could be used for the antifungal susceptibility studies. This way, a typical microdilution study would reach a final ratio of about 0.5-2% v/v of DMSO in 25% PDB.
(§2) Spore inocula were prepared in sterile distilled water with 0.1% Tween® 20 (a polysorbate surfactant), and a hemocytometer was used to determine the spore density. Typically, the spore inoculum was prepared fresh prior to each study, and the inoculum was appropriately diluted to a final concentration of 0.4-1×10^5 spores/mL or colony-forming unit (CFU)/mL in each study. The spore suspension can be stored in a refrigerator at 4° C. for up to one week.
(§3) The studies were performed in flat bottom, 96-well microtiter plates (Greiner Bio-One, Frickenhausen, Germany).
(§4) Plates sealed with clear polyester film (VWR, Radnor, Pa.) were incubated at a temperature of about 25° C. The progress of fungal growth was monitored at 48 hours and 72 hours.

Stachybotrys chartarum [1] = assay: 3 day MIC, broth microdilution in 25% PDB; details: for MIC: 72 h, read-out: 3 day MIC
Procedure: as §1, §2, §3, §4

Penicillium chrysogenum [2] = assay: 3 day MIC, broth microdilution in 25% PDB; details: 72 h, read-out: 3 day MIC
Procedure: as §1, §2, §3, §4

[3] = system: Penicillium brevicompactum; assay: 3 day MIC, broth microdilution in 25% PDB; details: 72 h, read-out: 3 day MIC
Procedure: as §1, §2, §3, §4

Alternaria alternata [4] = assay: 3 day MIC, broth microdilution in 25% PDB; details: 72 h, read-out: 3 day MIC
Procedure: as §1, §2, §3, §4

Penicillium corylophilum = assay: 3 day MIC, broth microdilution in 25% PDB; details: 72 h, read-out: 3 day MIC
Procedure: as §1, §2, §3, §4

Stachybotrys chartarum [5] = assay: Fungus resistance test for painted surfaces containing antifungal additives (defacement rating); parameters: key: 10 = no defacement, 0 = completely defaced; details: +100 μg/mL in Olympic Home paint
Procedure: (§5) A Defacement Rating is measured by estimating the percentage of surface defacement with 10 being no defacement and 0 begin completely defaced.
(§6) This test was used to evaluate the resistance of paint films containing antifungal additives to surface fungal growth.
(§7) Olympic® Home interior flat latex paint (PPG Industries, Pittsburgh, Pa.) and Valspar® QuikHide White flat interior paint (Valspar Corporation, Minneapolis, Minn.) were used for all studies unless otherwise noted. Stock solutions of the antifungal additives of interest were prepared in reagent grade dimethyl sulfoxide (DMSO; Alfa Aesar, Ward Hill, Mass.). Additives were spiked (by adding appropriate amounts of the antifungal stock solutions) into the liquid paint at specified concentrations. Samples of the additive-spiked paint were vigorously mixed with a vortex mixer for at least one minute to ensure uniform dispersion of the additive in the paint. […] Studies that use other brands of paint followed the same protocol as described for those using the Olympic® Home interior flat latex paint and Valspar® QuikHide paint.
(§8) Test surfaces were prepared in triplicate. In most cases, the tested conditions were repeated on a different date, again in triplicate. […] Two coats of paint were applied with a polyester brush to completely cover both faces of the filter paper disc, allowing at least four hours drying time between coats.
(§9) Nutrient-Salts Agar (NSA) medium was prepared according to ASTM method G21-13 in 100×15 mm sterile polystyrene petri dishes (VWR® Radnor, Pa.) with a solidified agar layer of about 3 to about 6 mm (⅛ to ¼ in.) in depth. The agar was allowed to solidify for at least 24 hours before being used. The painted test filter paper discs were placed in the center of the agar plates in a biosafety hood while wearing clean nitrile gloves.
(§10) The paint coatings were evaluated against three representative cellulose-supportable fungi: Stachybotrys chartarum, Penicillium chrysogenum, and Alternaria alternata. […] Fungal isolates of Alternaria alternata and Penicillium chrysogenum were obtained from the Plant Pathology and Environmental Microbiology Department at Penn State University.
(§11) A spore suspension of each of these fungi was prepared by pouring a 20-mL portion of autoclaved deionized water containing 0.01% Tween® 20 onto a subculture of each fungal species. Spores were counted with the use of a hemocytometer (Hausser Scientific, Horsham, Pa.) under a compound light microscope. Spore suspensions of Stachybotrys chartarum and Penicillium chrysogenum were diluted to 1×10^6 spores/mL with autoclaved deionized water. Spore suspensions of Alternaria alternata were used “as is” in the range of 200,000 to 400,000 spores/mL.
(§12) Painted test surfaces were inoculated with a spray bottle or with a sterile cotton-tipped applicator. To inoculate the sample with a spray bottle, the spore suspension was sprayed twice on the painted test discs with an autoclaved spray bottle that delivered approximately 0.14 g of fluid per spray. To inoculate the sample with a cotton-tipped applicator, an autoclaved cotton-tipped applicator was submerged in approximately 400 μL of the spore inoculum solution (spore concentrations described above) and applied evenly over the surface of the painted test surface twice. A fresh autoclaved cotton-tipped applicator was used for the application of each painted disc. All the paint studies with Alternaria alternata and Stachybotrys chartarum were inoculated using the spray bottle method. For studies with Penicillium chrysogenum using Olympic® Home paint, the spray bottle inoculation method was used. For studies with Penicillium chrysogenum using Valspar® QuikHide paint, the cotton-tipped applicator inoculation method was used.
(§13) After inoculation, the NSA agar plates were sealed with Parafilm®.

Penicillium chrysogenum [6] = assay: as above; parameters: key: 10 = no defacement, 0 = completely defaced
Procedure: as §5, §6, §7, §8, §9, §10, §11, §12, §13

Alternaria alternata [7] = assay: as above; parameters: key: 10 = no defacement, 0 = completely defaced; details: +100 μg/mL in Olympic Home paint
Procedure: as §5, §6, §7, §8, §9, §10, §11, §12, §13

[8] = +100 μg/mL in Olympic Home paint, 7 days
[9] = +100 μg/mL in Olympic Home paint, 14 days
[10] = +100 μg/mL in Olympic Home paint, 21 days
[11] = +200 μg/mL in Olympic Home paint, 7 days
[12] = +200 μg/mL in Olympic Home paint, 14 days
[13] = +200 μg/mL in Olympic Home paint, 21 days
[14] = +200 μg/mL in Valspar QuikHide paint, 7 days
[15] = +200 μg/mL in Valspar QuikHide paint, 14 days
[16] = +200 μg/mL in Valspar QuikHide paint, 21 days

Row | Structure (SMILES) | Average defacement rating ± standard deviation (Stachybotrys chartarum [5]; 7 days) | Average defacement rating ± standard deviation (Stachybotrys chartarum [5]; 14 days) | Average defacement rating ± standard deviation (Stachybotrys chartarum [5]; 21 days) | Average defacement rating ± standard deviation (Penicillium chrysogenum [6]; [8]) | Average defacement rating ± standard deviation (Penicillium chrysogenum [6]; [9]) | Average defacement rating ± standard deviation (Penicillium chrysogenum [6]; [10]) | Average defacement rating ± standard deviation (Penicillium chrysogenum [6]; [11]) | Average defacement rating ± standard deviation (Penicillium chrysogenum [6]; [12]) | Average defacement rating ± standard deviation (Penicillium chrysogenum [6]; [13]) | Average defacement rating ± standard deviation (Penicillium chrysogenum [6]; [14]) | Average defacement rating ± standard deviation (Penicillium chrysogenum [6]; [15]) | Average defacement rating ± standard deviation (Penicillium chrysogenum [6]; [16]) | Average defacement rating ± standard deviation (Alternaria alternata [7]; 7 days) | Average defacement rating ± standard deviation (Alternaria alternata [7]; 14 days) | Average defacement rating ± standard deviation (Alternaria alternata [7]; 21 days) | other results
1 | c1ccc2[nH]c(-c3cscn3)nc2c1 [Thiabendazole] | 1.3 ± 0.3 | 0.0 ± 0.0 | 0.0 ± 0.0 | 4.1 ± 0.0 | 0.4 ± 0.4 | 0.0 ± 0.0 | 9.3 ± 1.2 | 4.0 ± 4.7 | 1.7 ± 3.6 | 10.0 ± 0.0 | 9.3 ± 1.2 | 4.7 ± 4.6 | 0.0 ± 0.0 | 0.0 ± 0.0 | 0.0 ± 0.0 | MIC (Penicillium purpurogenum; Penicillium purpurogenum, 25% PDB): 0.2 µg/mL (≈ 0.994 µM); MIC (Stachybotrys chartarum [1]; 25% PDB): 25 µg/mL (≈ 124 µM); MIC (Penicillium chrysogenum [2]; 25% PDB): 0.4 µg/mL (≈ 1.99 µM); MIC ([3]; 25% PDB): 0.4 µg/mL (≈ 1.99 µM); MIC (Alternaria alternata [4]; 25% PDB): 100 µg/mL (≈ 497 µM); MIC (Penicillium corylophilum; 25% PDB): 0.39 µg/mL (≈ 1.94 µM)
2 | Oc1cc(Cl)ccc1Oc1ccc(Cl)cc1Cl [Triclosan, triclosan] | 0.8 ± 1.4 | 0.0 ± 0.0 | 0.0 ± 0.0 | 1.8 ± 1.4 | 0.0 ± 0.0 | 0.0 ± 0.0 | 9.3 ± 0.5 | 0.2 ± 0.4 | 0.0 ± 0.0 | 4.0 ± 3.6 | 0.0 ± 0.0 | 0.0 ± 0.0 | 0.1 ± 0.4 | 0.0 ± 0.0 | 0.0 ± 0.0 | MIC (Penicillium purpurogenum; Penicillium): 3.13 µg/mL (≈ 10.8 µM); 3 day MIC (Stachybotrys chartarum [1]; 25% PDB): <0.1 µg/mL; MIC (Stachybotrys chartarum [1]): < 0.1 µg/mL; MIC (Penicillium chrysogenum [2]): 6.3 µg/mL (≈ 21.8 µM); MIC [3]: 3.1 µg/mL (≈ 10.7 µM); MIC (Alternaria alternata [4]): 6.3 µg/mL (≈ 21.8 µM); MIC (Penicillium corylophilum): 3.13 µg/mL (≈ 10.8 µM)
